Assay results as given in patent US20250345329A1, “HETEROARYL DERIVATIVE COMPOUND AND USES THEREOF” (VORONOI, INC., priority 2022, published 2025).
Values belong to the compound of their own block, whether it stands above or below them.

Assays:
[1] = target: T1, human EGFR (d746-750/T790M/C797S) (Homo sapiens, UniProt P00533, C797S/DEL746-750/T790M); experiment: EGFR C797S enzyme inhibition activity (ADP-Glo kinase assay); format: biochemical; details: purified enzyme 3 ng, ATP 5 μM, 25° C., 1 hour, luminescence; read-out: EGFR DTC Enzyme IC50
T1 construct: human EGFR (d746-750/T790M/C797S) (668-end, SignalChem); purchased SignalChem
T1 sequence (P00533 with tags, fused parts or gaps DEL746-750/T790M/C797S): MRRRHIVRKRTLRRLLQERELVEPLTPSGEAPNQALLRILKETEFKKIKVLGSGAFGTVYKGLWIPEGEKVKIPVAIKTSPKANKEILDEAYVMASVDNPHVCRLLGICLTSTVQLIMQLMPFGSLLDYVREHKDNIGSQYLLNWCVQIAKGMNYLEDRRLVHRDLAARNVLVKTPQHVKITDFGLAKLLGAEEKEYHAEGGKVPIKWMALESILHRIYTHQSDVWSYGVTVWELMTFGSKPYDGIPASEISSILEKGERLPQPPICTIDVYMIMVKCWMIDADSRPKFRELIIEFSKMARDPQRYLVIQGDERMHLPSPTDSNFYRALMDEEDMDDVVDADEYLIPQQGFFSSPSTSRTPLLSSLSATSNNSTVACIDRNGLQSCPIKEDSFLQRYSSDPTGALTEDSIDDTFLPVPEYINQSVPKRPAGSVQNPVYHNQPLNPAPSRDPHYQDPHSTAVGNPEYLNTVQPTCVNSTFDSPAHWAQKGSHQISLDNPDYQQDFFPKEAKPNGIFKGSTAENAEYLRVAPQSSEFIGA
Procedure, shortened: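 Kinase construct 668-end (3 ng) was incubated with 5 μM ATP and 0.2 μg substrate in Tris pH 7.4 buffer for 1 h at 25° C. ADP-Glo luminescence was read over 12 final compound concentrations from 10 μM down to 0. IC50 was taken as 50% inhibition relative to the solvent control.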

[2] = system: Ba/F3 expressing EGFR Del19/T790M/C797S mutations; experiment: Inhibitory activity on proliferation of Ba/F3 cell overexpressing EGFR C797S (Cell Titer-Glo); format: cell-based; details: Mus musculus, BaF3; 72 hours treatment, cell growth rate vs control; read-out: Ba/F3 (EGFR DTC) GI50
Procedure, shortened: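 Ba/F3 cells with EGFR Del19/T790M/C797S in RPMI-1640 + 10% FBS were seeded (3000/well) 24 h before 72 h compound exposure at 37 °C. Compounds were tested in a 12-point 3-fold series, final […]–5 μM. CellTiter-Glo luminescence gave growth % versus control, from which GI50 was derived.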

Structure (SMILES): CC(C)Nc1cc(Nc2ccnc(-c3cnn(S(=O)(=O)C4CC4)c3)n2)ncc1C(=O)NCCCS(C)(=O)=O [Example 64, 6-((2-(1-(cyclopropylsulfonyl)-1H-pyrazol-4-yl)pyrimidin-4-yl)amino)-4-(isopropylamino)-N-(3-(methyl-sulfonyl)propyl) nicotinamide]
- IC50 [1]: 50 to 500 nM
- GI50 [2]: 500 to 5000 nM

Structure (SMILES): C[C@H]1CCOc2c(cnn2C)-c2nccc(n2)Nc2cc(c(C(=O)Nc3cccc(N4CCN(C)CC4)c3)cn2)N1 [Example 100, (S)-1^1,6-dimethyl-N-(3-(4-methylpiperazin-1-yl)phenyl)-1^1H-9-oxa-3,5-diaza-2(2,4)-pyrimidina-4(2,4)-pyridina-1(4.5)-pyrazolacyclo-nonaphane-4^5-carboxamide]
- IC50 [1]: < 50 nM
- GI50 [2]: < 500 nM

Structure (SMILES): CC(C)Nc1cc(Nc2ccnc(-c3cnn(S(=O)(=O)C4CC4)c3)n2)ncc1C(=O)NC(CN(C)C)c1ccccc1 (stereo not shown) [Example 70, 6-((2-(1-(cyclopropylsulfonyl)-1H-pyrazol-4-yl)pyrimidin-4-yl)amino)-N-(2-(dimethylamino)-1-phenylethyl)-4-(isopropylamino)nico-tinamide]
- IC50 [1]: < 50 nM
- GI50 [2]: 500 to 5000 nM

Structure (SMILES): CO[C@H]1CCN(c2nccc(Nc3cc(NC4CCNC4)c(C(=O)N4CC(CS(C)(=O)=O)C4)cn3)n2)C[C@H]1F (relative stereo) [Example 15, (6-((2-(cis-3-fluoro-4-methoxypiperidin-1-yl)pyrimidin-4-yl)amino)-4-(pyrrolidin-3-ylamino)pyridin-3-yl)(3-((methylsulfonyl)meth-yl)azetidin-1-yl)methanone]
- IC50 [1]: 50 to 500 nM
- GI50 [2]: 500 to 5000 nM

Structure (SMILES): CC(C)Nc1cc(Nc2ccnc(-c3cnn(S(=O)(=O)C4CC4)c3)n2)ncc1C(=O)NCc1ccc(F)cc1 [Example 61, 6-((2-(1-(cyclopropylsulfonyl)-1H-pyrazol-4-yl)pyrimidin-4-yl)amino)-N-(4-fluorobenzyl)-4-(isopropylamino)nico-tinamide]
- IC50 [1]: 50 to 500 nM
- GI50 [2]: 500 to 5000 nM

Structure (SMILES): C[C@H]1CCOc2c(cnn2C)-c2cc(ccn2)Nc2ncc(C(=O)NCCC(F)(F)F)c(n2)N1 [Example 115, (S)-1^1,6-dimethyl-N-(3,3,3-trifluoropropyl)-1^1H-9-oxa-3,5-diaza-4(2,4)-pyrimidina-2(2,4)-pyridina-1(4,5)-pyrazolacyclo-nonaphane-4^5-carboxamide]
- IC50 [1]: < 50 nM
- GI50 [2]: < 500 nM

Structure (SMILES): CO[C@H]1CCN(c2nccc(Nc3cc(NC(C)C)c(C(=O)NCCc4ccccc4)cn3)n2)C[C@H]1F (relative stereo) [Example 96, 6-((2-(cis-3-fluoro-4-methoxypiperidin-1-yl)pyrimidin-4-yl)amino)-4-(isopropylamino)-N-phenethylnicotinamide]
- IC50 [1]: 50 to 500 nM
- GI50 [2]: 500 to 5000 nM

Structure (SMILES): CO[C@H]1CCN(c2nccc(Nc3cc(NC(C)C)c(C(=O)Nc4cccc(N5CCN(C)CC5)c4)cn3)n2)C[C@H]1F (relative stereo) [Example 41, 6-((2-(cis-3-fluoro-4-methoxypiperidin-1-yl)pyrimidin-4-yl)amino)-4-(isopropylamino)-N-(3-(4-methylpiperaizn-1-yl)phenyl)nicotinamide]
- IC50 [1]: < 50 nM
- GI50 [2]: 500 to 5000 nM

Structure (SMILES): C[C@H]1CCOc2c(cnn2C)-c2nccc(n2)Nc2cc(c(C(=O)NC3CCCC(C(F)(F)F)C3)cn2)N1 (stereo partly drawn) [Example 119, (6S)-1^1,6-dimethyl-N-(3-(trifluoroemthyl)cy-clohexyl)-1^1H-9-oxa-3,5-diaza-2(2,4)-pyrimidina-4(2,4)-pyridina-1(4,5)-pyrazolacyclo-nonaphane-4^5-carboxamide]
- IC50 [1]: < 50 nM
- GI50 [2]: < 500 nM

Structure (SMILES): CC(C)Nc1cc(Nc2ccnc(-c3cnn(S(=O)(=O)C4CC4)c3)n2)ncc1C(=O)N1CC(CS(C)(=O)=O)C1 [Example 1, (6-((2-(1-(cyclopropylsulfonyl)-1H-pyrazol-4-yl)pyrimidin-4-yl)amino)-4-(isopropylamin)pyri-din-3-yl)(3-((methylsulfonyl)meth-yl)azetidin-1-yl)methanone]
- IC50 [1]: < 50 nM
- GI50 [2]: 500 to 5000 nM

Structure (SMILES): CC(C)Nc1cc(Nc2ccnc(-c3cnn(S(=O)(=O)C4CC4)c3)n2)ncc1C(=O)NC1CCN(S(C)(=O)=O)C1 (stereo not shown) [Example 49, 6-((2-(1-(cyclopropylsulfonyl)-1H-pyrazol-4-yl)pyrimidin-4-yl)amino)-4-(isopropylamino)-N-(1-(methylsulfonyl)pyrro-lidin-3-yl)nicotinamide]
- IC50 [1]: < 50 nM
- GI50 [2]: 500 to 5000 nM

Structure (SMILES): CC(C)Nc1cc(Nc2ccnc(N3CCOCC3)n2)ncc1C(=O)N1CC(CS(C)(=O)=O)C1 [Example 10, (4-(isopropylamino)-6-((2-morpholinopyrimidin-4-yl)amino)pyridin-3-yl)(3-((methylsulfonyl)meth-yl)azetidin-1-yl)methanone]
- IC50 [1]: < 50 nM
- GI50 [2]: 500 to 5000 nM

Structure (SMILES): CC(C)Nc1cc(Nc2ccnc(-c3cnn(S(=O)(=O)C4CC4)c3)n2)ncc1C(=O)N1CC[C@H](CN2CCN(C)CC2)C1 [Example 65, (R)-(6-((2-(1-(cyclopropylsulfonyl)-1H-pyrazol-4-yl)pyrimidin-4-yl)amino)-4-(isopropylamino)pyri-din-3-)(3-((4-methylpiperazin-1-yl)methyl)pyrrolidin-1-yl)methanone]
- IC50 [1]: < 50 nM
- GI50 [2]: 500 to 5000 nM

Structure (SMILES): CC(C)Nc1cc(Nc2ccnc(-c3cnn(S(=O)(=O)C4CC4)c3)n2)ncc1C(=O)NC1CN(S(C)(=O)=O)C1 [Example 48, 6-((2-(1-(cyclopropylsulfonyl)-1H-pyrazol-4-yl)pyrimidin-4-yl)amino)-4-(isopropylamino)-N-(1-(methylsulfonyl)azeti-din-3-yl)nicotinamide]
- IC50 [1]: < 50 nM
- GI50 [2]: < 500 nM

Other lines, results leading:

- IC50 [1]: < 50 nM
- GI50 [2]: < 500 nM
Structure (SMILES): CC(C)Nc1cc(Nc2ccnc(-c3cnn(S(=O)(=O)C4CC4)c3)n2)ncc1C(=O)NCCN1CCOCC1 [Example 83, 6-((2-(1-(cyclopropylsulfonyl)-1H-pyrazol-4-yl)pyrimidin-4-yl)amino)-4-(isopropylamino)-N-(2-morpholinoethyl)nico-tinamide]

- IC50 [1]: 50 to 500 nM
- GI50 [2]: < 500 nM
Structure (SMILES): CC(C)Nc1cc(Nc2ccnc(-c3cnn(S(=O)(=O)C4CC4)c3)n2)ncc1C(=O)NC1CC(F)(F)C1 [Example 99, 6-((2-(1-(cyclopropylsulfonyl)-1H-pyrazol-4-yL)pyrimidin-4-yl)amino)-N-(3,3-difluorocyclobutyl)-4-(isopropylamino)nico-tinamide]

- IC50 [1]: < 50 nM
- GI50 [2]: 500 to 5000 nM
Structure (SMILES): CC(C)Nc1cc(Nc2ccnc(-c3cnn(S(=O)(=O)C4CC4)c3)n2)ncc1C(=O)NCCCO [Example 57, 6-((2-(1-(cyclopropylsulfonyl)-1H-pyrazol-4-yl)pyrimidin-4-yl)amino)-N-(3-hydroxypropyl)-4-(isopropylamino)nico-tinamide]

- IC50 [1]: < 50 nM
- GI50 [2]: 500 to 5000 nM
Structure (SMILES): CC(C)Nc1cc(Nc2ccnc(-c3cnn(S(=O)(=O)C4CC4)c3)n2)ncc1C(=O)NCCS(C)(=O)=O [Example 35, 6-((2-(1-(cyclopropylsulfonyl)-1H-pyrazol-4-yl)pyrimidin-4-yl)amino)-4-(isopropylamino)-N-(2-(methylsulfonyl)ethyl) nicotinamide]

- IC50 [1]: < 50 nM
- GI50 [2]: < 500 nM
Structure (SMILES): CC(C)Nc1cc(Nc2ccnc(-c3cnn(S(=O)(=O)C4CC4)c3)n2)ncc1C(=O)NCC1CCCO1 (stereo not shown) [Example 62, 6-((2-(1-(cyclopropylsulfonyl)-1H-pyrazol-4-yl)pyrimidin-4-yl)amino)-4-(isopropylamino)-N-((tetrahydrofuran-2-yl)methyl)nicotin-amide]

- IC50 [1]: 50 to 500 nM
- GI50 [2]: 500 to 5000 nM
Structure (SMILES): CC(C)Nc1cc(Nc2ccnc(-c3cnn(S(=O)(=O)C4CC4)c3)n2)ncc1C(=O)NCC1CCCC1 [Example 56, N-(cyclopentylmethyl)-6-((2-(1-(cyclopropylsulfonyl)-1H-pyrazol-4-yl)pyrimidin-4-yl)amino)-4-(isopropylamino)-nicotinamide]
